The target of one data set is T1, PPARγ-RXRα heterodimer (Homo sapiens, UniProt P37231).
T1 construct: expressed in transfected cells; host or cells: CHO-K1
T1 sequence (P37231 1-477 isoform P37231-2): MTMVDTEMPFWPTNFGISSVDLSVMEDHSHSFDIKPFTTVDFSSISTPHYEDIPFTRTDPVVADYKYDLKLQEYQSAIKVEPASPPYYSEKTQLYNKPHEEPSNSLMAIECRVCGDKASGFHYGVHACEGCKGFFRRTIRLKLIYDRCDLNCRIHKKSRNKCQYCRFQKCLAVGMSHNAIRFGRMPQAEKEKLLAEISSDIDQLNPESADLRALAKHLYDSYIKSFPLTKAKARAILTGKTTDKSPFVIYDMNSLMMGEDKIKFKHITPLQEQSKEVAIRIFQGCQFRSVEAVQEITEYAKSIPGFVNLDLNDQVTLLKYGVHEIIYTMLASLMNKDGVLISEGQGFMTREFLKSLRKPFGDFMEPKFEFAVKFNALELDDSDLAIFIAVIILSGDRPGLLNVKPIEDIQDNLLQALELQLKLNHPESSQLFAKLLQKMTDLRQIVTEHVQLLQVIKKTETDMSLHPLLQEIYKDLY
T1 sequence (P19793 1-462 partner): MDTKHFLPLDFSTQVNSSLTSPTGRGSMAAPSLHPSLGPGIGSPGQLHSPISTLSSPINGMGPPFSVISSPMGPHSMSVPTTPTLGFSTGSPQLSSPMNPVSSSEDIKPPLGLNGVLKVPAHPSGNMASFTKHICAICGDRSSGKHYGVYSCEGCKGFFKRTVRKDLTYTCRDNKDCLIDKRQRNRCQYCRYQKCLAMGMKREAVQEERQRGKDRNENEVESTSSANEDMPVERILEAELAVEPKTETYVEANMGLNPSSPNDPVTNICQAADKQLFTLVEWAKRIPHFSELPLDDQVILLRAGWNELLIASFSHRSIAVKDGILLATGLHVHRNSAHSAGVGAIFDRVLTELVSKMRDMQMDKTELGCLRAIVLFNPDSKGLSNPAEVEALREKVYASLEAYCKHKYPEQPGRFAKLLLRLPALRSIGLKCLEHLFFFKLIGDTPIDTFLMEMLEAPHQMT
As to the kind of experiment: PPARγ-RXRα heterodimer ligand activity, luciferase reporter in PPARγ:RXRα:4ERPP/CHO-K1 cells (Test Example 3). The data set is classed as cell-based. To be noted: 18-48 hours, concentration for 50% of the maximum fold induction. As for the experimental part:
A PPARγ: RXRα: 4ERPP/CHO-K1 cells obtained in Reference Example 8a described later were cultured in HAM F12 medium (produced by Life Technologies, Inc., USA) containing 10% Fetal bovine serum (produced by Life Technologies, Inc., USA) and then inoculated to a 96-well white plate (produced by Corning Costar Corporation, USA) at the density of 2×10^4 cells/well, and cultured in a CO2 gas incubator at 37° C. overnight.
After removing the medium from 96 well white plate, 80 μl of HAM F12 medium containing 0.1% fatty acid-free bovine serum albumin (BSA) and 20 μl of test compound were added, which was cultured in a CO2 gas incubator at 37° C. for 18-48 hours. After removing the medium, 40 μl of PIKKAGENE 7.5 (produced by Wako Pure Chemical Industries, Ltd.) diluted twice with HBSS (HANKS' BALANCED SALT SOLUTION)(produced by BIO WHITTAKER Inc., USA), was added. After stirring, the luciferase activity was determined using 1420 ARVO Multilabel Counter (produced by PerkinElmer Inc., USA).
A fold induction was calculated based on the luciferase activity of each test compound by taking the luciferase activity in the non-treatment group as 1. The values of the test compound concentration and the fold induction were analyzed using PRISM (produced by GraphPad Software Inc. USA) to calculate the EC50 values, the effective concentration of a test compound for 50% of the maximum fold induction.
After a CHO-K1 cell cultured in a 150 cm^2 cell culture flask (750 ml)(produced by Corning Costar Corporation, USA) containing HAM F12 medium (produced by Life Technologies, Inc., USA) supplemented with 10% Fetal Bovine Serum (produced by Life Technologies, Inc., USA) was scraped by treating with 0.5 g/L trypsin-0.2 g/L EDTA (ethylenediaminetetraacetic acid) (produced by Life Technologies, Inc., USA), the cell was washed with PBS (phosphate-buffered saline) (produced by Life Technologies, Inc., USA), centrifuged (1000 rpm, 5 minutes), and then suspended in PBS. Subsequently, a DNA was introduced into the cell under the condition shown below using GENE PULSER (produced by Bio-Rad Laboratories, USA).
Namely, to a cuvette having a 0.4 cm gap, added were 8×10^6 cells and 10 μg of plasmid pVgRXR2-hPPARγ obtained in Reference Example 7a and 10 μg of reporter plasmid pGL3-4ERPP-TK neo obtained in Reference Example 5a, which was subjected to electroporation at the voltage of 0.25 kV under the capacitance of 960 μF. Subsequently, the cell was transferred into a HAM F12 medium containing 10% Fetal Bovine Serum and cultured for 24 hours and then the cell was scraped again and centrifuged, and then suspended in HAM F12 medium containing 10% Fetal Bovine Serum supplemented with 500 μg/ml of GENETICIN (produced by Life Technologies, Inc., USA) and 250 μg/ml of ZEOCIN (produced by Invitrogen, USA). The obtained suspension was diluted to the density of 10^4 cells/ml and inoculated to a 96-well plate (produced by Corning Costar Corporation, USA), which was cultured in a CO2 gas incubator at 37° C., whereby obtaining a GENETICIN- and ZEOCIN-resistant transformant.
Subsequently, after the transformant cell line thus obtained was cultured in a 24-well plate (produced by Corning Costar Corporation, USA), selected was a cell line in which the luciferase was expressed and induced, i.e., PPARγ:RXRα:4ERPP/CHO-K1 cell by addition of 10 μM of pioglitazone hydrochloride.

Another data set relates to KKAY mice. As to the kind of experiment: Hypoglycemic and hypolipidemic actions in mice (Test Example 1). The data set is classed as in vivo. To be noted: Mus musculus, po, 96 h, 0.005% in powdery diet, four days, non-treated group taken as 100%. As for the experimental part: Test compounds were mixed in a powdery diet (CE-2, Japan Clea) at the concentration of 0.005%, and freely given to KKAY mice (9 to 12 weeks old, 5 mice in a group), a model of obese and non-insulin dependent diabetes (type 2 diabetes), for four days. During this period, water was given freely. Blood was sampled from orbital venous plexus, and glucose and triglyceride levels in plasma separated from blood were determined enzymatically using L type Wako Glu2 (Wako Pure Chemical Industries, Ltd.) or L type Wako TG·H (Wako Pure Chemical Industries, Ltd.), respectively.
In the table, “hypoglycemic action (%)” means the rate of decrease (%) in the blood glucose level of the treated group when the blood glucose level of the non-treated group is taken as 100%. In addition, the “hypolipidemic action (%)” means the rate of decrease (%) in the blood triglyceride level of the treated group when the blood triglyceride level of the non-treated group is taken as 100%.

Setting [1] is: rate of decrease in blood glucose level, read-out: Hypoglycemic action (%).
[2] abbreviates: rate of decrease in blood triglyceride level, read-out: Hypolipidemic action (%).

SMILES strings stand for the structures. Like-named read-outs stand apart in the source and are kept apart here.

In turn, `CC(C)c1nn(-c2ccc(C(F)(F)F)cn2)cc1CCCOc1c(Cl)cccc1CC(=O)O` [Example 239, [3-chloro-2-(3-{3-isopropyl-1-[5-(trifluoromethyl)-2-pyridinyl]-1H-pyrazol-4-yl}propoxy)phenyl]acetic acid] displayed a melting point of 141 to 142 °C. The compound further gave a 50% effective concentration (EC50) on PPARγ-RXRα heterodimer of 35 nM. Besides, in the data set on KKAY mice (setting [1]), the inhibition in vivo at 0.005 % in diet is 42%. Besides, the inhibition in vivo at 0.005 % in diet in the data set with KKAY mice (setting [2]) came to 65%.

`CCOc1cccc(CC(=O)O)c1OCCCc1cn(-c2ccc(C(F)(F)F)cn2)nc1C(CC)CC` [Example 221, [3-ethoxy-2-(3-{3-(1-ethylpropyl)-1-[5-(trifluoromethyl)-2-pyridyl]-1H-pyrazol-4-yl}propoxy)phenyl]acetic acid] displayed a melting point of 83 to 84 °C. The same compound had an EC50 on PPARγ-RXRα heterodimer of 12 nM. Moreover, in the data set with KKAY mice (setting [1]), the inhibition in vivo at 0.005 % in diet was 46%. Moreover, the inhibition in vivo at 0.005 % in diet with KKAY mice (setting [2]) was 21%.

`COc1cccc(CC(=O)O)c1OCCCc1cn(-c2ccc(Br)cn2)nc1C(C)C` [Example 218, (2-{3-[1-(5-bromo-2-pyridyl)-3-isopropyl-1H-pyrazol-4-yl]propoxy}-3-methoxyphenyl)acetic acid]: the melting point lay in the range of 152 to 153 °C. Also, a half-maximal effect at PPARγ-RXRα heterodimer (EC50) was put at 51 nM. The inhibition in vivo at 0.005 % in diet in the data set with KKAY mice (setting [1]) turned out to be 34%. Also, the inhibition in vivo at 0.005 % in diet in the data set with KKAY mice (setting [2]) was 43%.

Turning to `CCCCc1nn(-c2ccc(C(F)(F)F)cn2)cc1CCCOc1c(CC(=O)O)cccc1OC` [Example 197, [2-(3-{3-butyl-1-[5-(trifluoromethyl)-2-pyridyl]-1H-pyrazol-4-yl}propoxy)-3-methoxyphenyl]acetic acid], the melting point fell in the range of 121 to 122 °C. Besides, the EC50 at PPARγ-RXRα heterodimer was determined as 22 nM. Besides, the inhibition in vivo at 0.005 % in diet with KKAY mice (setting [1]) is 45%. For the same compound, the inhibition in vivo at 0.005 % in diet in the data set on KKAY mice (setting [2]) is 65%.

As for `CCCc1nn(-c2ccc(C(F)(F)F)cn2)cc1CCCOc1c(CC)cccc1CC(=O)O` [Example 229, [3-ethyl-2-(3-{3-propyl-1-[5-(trifluoromethyl)-2-pyridinyl]-1H-pyrazol-4-yl}propoxy)phenyl]acetic acid], the melting point was 146 to 147 °C. For the same compound, the EC50 on PPARγ-RXRα heterodimer worked out at 21 nM. The inhibition in vivo at 0.005 % in diet in the data set on KKAY mice (setting [1]) is 41%. Further, the inhibition in vivo at 0.005 % in diet in the data set on KKAY mice (setting [2]) came to 49%.

Compound `COc1cccc(CC(=O)O)c1OCCCc1cn(-c2ccc(C)cn2)nc1C(C)C` [Example 272, (3-methoxy-2-{3-[3-isopropyl-1-(5-methyl-2-pyridyl)-1H-pyrazol-4-yl]propoxy}phenyl)acetic acid] showed a melting point of 132 to 133 °C. This compound also returned an EC50 at PPARγ-RXRα heterodimer of 50 nM. Moreover, in the data set on KKAY mice (setting [1]), the inhibition in vivo at 0.005 % in diet was 48%. Besides, in the data set with KKAY mice (setting [2]), the inhibition in vivo at 0.005 % in diet amounted to 69%.

In turn, `CCC(CC)c1nn(-c2ccc(C(F)(F)F)cn2)cc1CCCOc1ccccc1CC(=O)O` [Example 215, [2-(3-{3-(1-ethylpropyl)-1-[5-(trifluoromethyl)-2-pyridyl]-1H-pyrazol-4-yl}propoxy)phenyl]acetic acid] yielded a melting point of 65 to 66 °C. Also, the EC50 at PPARγ-RXRα heterodimer is 20 nM. For the same compound, the inhibition in vivo at 0.005 % in diet with KKAY mice (setting [1]) came to 50%. For the same compound, the inhibition in vivo at 0.005 % in diet with KKAY mice (setting [2]) came out at 45%.

`CCCC(C)c1nn(-c2ccc(C(F)(F)F)cn2)cc1CCCOc1c(CC(=O)O)cccc1OC` (centres unmarked) [Example 220, [3-methoxy-2-(3-{3-(1-methylbutyl)-1-[5-(trifluoromethyl)-2-pyridyl]-1H-pyrazol-4-yl}propoxy)phenyl]acetic acid]: the melting point lay within 107 to 108 °C. Besides, a half-maximal response on PPARγ-RXRα heterodimer (EC50) required 9.6 nM. Besides, the inhibition in vivo at 0.005 % in diet in the data set with KKAY mice (setting [1]) worked out at 44%. Moreover, the inhibition in vivo at 0.005 % in diet in the data set with KKAY mice (setting [2]) is 50%.

`CCCc1nn(-c2ccc(C(F)(F)F)cn2)cc1CCCCn1cc(CCC(=O)O)c(-c2ccc(F)cc2)n1` [Example 77, 3-[3-(4-fluorophenyl)-1-(4-{3-propyl-1-[5-(trifluoromethyl)-2-pyridinyl]-1H-pyrazol-4-yl}butyl)-1H-pyrazol-4-yl]propanoic acid]: the melting point lay within 119 to 121 °C. Moreover, the EC50 on PPARγ-RXRα heterodimer was 21 nM.

In turn, `CC(C)c1nn(-c2ccc(C(F)(F)F)cn2)cc1CCCOc1c(Br)cccc1CC(=O)O` [Example 235, [3-bromo-2-(3-{3-isopropyl-1-[5-(trifluoromethyl)-2-pyridinyl]-1H-pyrazol-4-yl}propoxy)phenyl]acetic acid] came in with a melting point of 146 to 147 °C. Besides, the midpoint of the response at PPARγ-RXRα heterodimer, the EC50, lay at 26 nM. In the data set with KKAY mice (setting [1]), the inhibition in vivo at 0.005 % in diet amounted to 43%. In addition, the inhibition in vivo at 0.005 % in diet in the data set on KKAY mice (setting [2]) is 64%.

`O=C(O)Cc1cccc(F)c1OCCCc1cn(-c2ccc(C(F)(F)F)cn2)nc1C1CCCCC1` [Example 210, [2-(3-{3-cyclohexyl-1-[5-(trifluoromethyl)-2-pyridyl]-1H-pyrazol-4-yl}propoxy)-3-fluorophenyl]acetic acid]: the melting point fell in the range of 149 to 150 °C. In addition, at PPARγ-RXRα heterodimer, the EC50 stood at 16 nM.

Regarding `CCC(CC)c1nn(-c2ccc(C(F)(F)F)cn2)cc1CCCOc1c(F)cccc1CC(=O)O` [Example 214, [2-(3-{3-(1-ethylpropyl)-1-[5-(trifluoromethyl)-2-pyridyl]-1H-pyrazol-4-yl}propoxy)-3-fluorophenyl]acetic acid], the melting point was in the range of 102 to 103 °C. This compound had a concentration for a half-maximal effect (EC50) at PPARγ-RXRα heterodimer of 18 nM. Also, the inhibition in vivo at 0.005 % in diet in the data set on KKAY mice (setting [1]) was 44%. In addition, the inhibition in vivo at 0.005 % in diet with KKAY mice (setting [2]) was 52%.

These data come from patent US20060148858A1, “1, 2-Azole derivatives with hypoglycemic and hypolipidemic activity” (priority 2002, published 2006).
